In patent publication US6653478B2, “Substituted benzimidazol-2-ones as vasopressin receptor antagonists and neuropeptide Y modulators” (Ortho-McNeil Pharmaceutical, Inc., priority 2000, dated 2003):

How the values were obtained:
human V1b receptor = target: T1, human V1b receptor (Homo sapiens, UniProt P47901); experiment: V1b binding assay (3H-AVP displacement, HEK-293 membranes); design: expressed in transfected cells; host or cells: HEK-293 (membranes); settings: for inhibition at 1 µM: read-out: V1b@1.0, % Inh
T1 sequence (P47901 1-424): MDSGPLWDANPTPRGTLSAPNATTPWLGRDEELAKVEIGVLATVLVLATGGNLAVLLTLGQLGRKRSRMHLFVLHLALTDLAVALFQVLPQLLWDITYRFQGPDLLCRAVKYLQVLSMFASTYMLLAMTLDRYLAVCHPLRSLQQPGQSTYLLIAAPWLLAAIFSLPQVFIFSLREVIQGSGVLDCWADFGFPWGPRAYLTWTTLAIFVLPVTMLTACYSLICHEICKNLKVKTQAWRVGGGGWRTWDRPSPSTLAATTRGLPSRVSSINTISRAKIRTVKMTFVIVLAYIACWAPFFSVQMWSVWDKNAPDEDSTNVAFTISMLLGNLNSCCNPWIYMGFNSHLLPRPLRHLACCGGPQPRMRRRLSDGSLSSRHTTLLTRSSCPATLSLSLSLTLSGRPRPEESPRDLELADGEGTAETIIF
How it was run: (§1)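 Membranes from transfected HEK-293 cells incubated 1 h at room temperature with ³H-AVP (10,000 cpm) in 50 mM Tris, 5 mM MgCl2, 0.1% BSA, pH 7.5 plus protease inhibitors. Non-specific binding set with 1.25 μM AVP. Bound tracer collected on PEI-soaked GF/C filters and counted by scintillation.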

human V2 receptor = human V2 receptor (Homo sapiens, UniProt P30518); experiment: V2 binding assay (3H-AVP displacement, HEK-293 membranes); design: expressed in transfected cells; host or cells: HEK-293 (membranes); settings: 1.0 μM compound; for inhibition at 1 µM: read-out: V2@1.0, % Inh
Chain of human V2 receptor (P30518 whole entry): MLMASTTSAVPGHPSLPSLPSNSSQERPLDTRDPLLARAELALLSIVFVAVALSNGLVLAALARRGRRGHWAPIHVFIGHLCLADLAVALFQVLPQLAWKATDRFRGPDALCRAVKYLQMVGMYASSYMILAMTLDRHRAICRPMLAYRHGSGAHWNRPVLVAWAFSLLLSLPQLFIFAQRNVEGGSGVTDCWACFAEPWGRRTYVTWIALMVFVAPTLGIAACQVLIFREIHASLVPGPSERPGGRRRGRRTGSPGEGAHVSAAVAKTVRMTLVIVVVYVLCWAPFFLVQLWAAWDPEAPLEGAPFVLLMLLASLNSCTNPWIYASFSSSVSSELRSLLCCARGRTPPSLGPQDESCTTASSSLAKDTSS
How it was run: as §1

NPY2 receptors = target: T2, NPY2 receptors (Homo sapiens, UniProt P49146); experiment: Neuropeptide Y receptor binding assay (125I-PYY, KAN-TS cell membranes); settings: 10 μM compound; for inhibition at 10 µM: read-out: NPY-2@10, % Inh
T2 construct: Cell Membranes from KAN-TS cells having NPY2 receptors; endogenous in cells; host or cells: KAN-TS cells (membranes)
T2 sequence (P49146 1-381): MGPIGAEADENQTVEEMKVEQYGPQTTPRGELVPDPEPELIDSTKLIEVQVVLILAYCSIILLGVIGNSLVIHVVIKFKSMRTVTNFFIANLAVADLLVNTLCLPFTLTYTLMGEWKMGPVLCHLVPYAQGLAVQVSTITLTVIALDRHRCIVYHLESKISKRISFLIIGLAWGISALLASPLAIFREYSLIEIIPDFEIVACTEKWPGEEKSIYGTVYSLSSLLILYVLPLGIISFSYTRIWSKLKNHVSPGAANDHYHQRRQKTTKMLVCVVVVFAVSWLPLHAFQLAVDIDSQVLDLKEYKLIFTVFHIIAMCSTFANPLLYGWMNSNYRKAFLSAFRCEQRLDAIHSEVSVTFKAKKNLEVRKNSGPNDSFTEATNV
How it was run: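 Membranes from KAN-TS cells competed with 125I-PYY in binding buffer containing BSA, test compound at 10 μM final, 1 hr at room temperature. Nonspecific binding defined with 1 μM PYY final. Tubes centrifuged, washed with PBS and bound radioactivity gamma-counted.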

human V1a receptor = human V1a receptor (Homo sapiens, UniProt P37288); experiment: V1a binding assay (3H-AVP displacement, HEK-293 membranes); design: expressed in transfected cells; host or cells: HEK-293 (membranes); settings: for inhibition at 1 µM: read-out: V1a@1.0, % Inh
Chain of human V1a receptor (P37288 whole entry): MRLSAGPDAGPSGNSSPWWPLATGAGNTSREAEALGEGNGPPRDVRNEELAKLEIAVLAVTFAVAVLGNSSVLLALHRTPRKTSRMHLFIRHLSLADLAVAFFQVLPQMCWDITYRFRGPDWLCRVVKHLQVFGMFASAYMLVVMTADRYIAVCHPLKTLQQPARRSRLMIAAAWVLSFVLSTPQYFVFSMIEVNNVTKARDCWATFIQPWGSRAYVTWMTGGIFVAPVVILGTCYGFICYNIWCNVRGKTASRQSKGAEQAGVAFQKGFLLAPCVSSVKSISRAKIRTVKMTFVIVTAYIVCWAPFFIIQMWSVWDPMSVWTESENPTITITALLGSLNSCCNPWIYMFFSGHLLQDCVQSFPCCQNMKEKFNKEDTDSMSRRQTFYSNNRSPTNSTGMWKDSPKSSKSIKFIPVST
How it was run: as §1

inhibition at 1 µM (human V1b receptor; 1.0 μM compound) [%]	inhibition at 1 µM (human V2 receptor) [%]	inhibition at 10 µM (NPY2 receptors) [%]	IC50 (human V1a receptor) [nM]	IC50 (human V1b receptor) [nM]	inhibition at 1 µM (human V1a receptor; 1.0 μM compound) [%]	Compound	V1b@1.0, % Inh (human V1b receptor; 1.0 μM compound) [%]	V2@1.0, % Inh (human V2 receptor) [%]	NPY-2@10, % Inh (NPY2 receptors) [%]	V1a@1.0, % Inh (human V1a receptor; 1.0 μM compound) [%]
	18	89	4	76		O=c1n(CCCN2CCCCC2)c2ccccc2n1C1CCN(C(=S)NC(c2ccccc2)c2ccccc2)CC1 [Compound 81, 1-[(N1-piperidinocarbothioylbiphenylmethylamino)-4-yl]-3-(3-N-piperidinylpropyl)-1,3-dihydrobenzimidazol-2-one]				
	11	91	6	140		CC1CC(C)CN(CCCn2c(=O)n(C3CCN(C(=S)NC(c4ccccc4)c4ccccc4)CC3)c3ccccc32)C1 (centres unmarked) [Compound 82]				
10	0	8			34	O=C(NCc1ccccc1F)N1CCC(n2c(=O)n(CCCN3CCCC3)c3ccccc32)CC1 [Compound 89]				
27	5	13	62			CCN(CC)CCn1c(=O)n(C2CCN(C(=S)NCc3ccccc3-c3ccccc3)CC2)c2ccccc21 [Compound 90, 1-(N1-Piperidinocarbothioyl-(2-phenylbenzylamino)-4-yl)-3-(2-diethyaminoethyl)benzimidazol-2-one]				
5	3	0			3	CCN(CC)CCn1c(=O)n(C2CCN(C(=O)Nc3ccccc3C)CC2)c2ccccc21 [Compound 92, 1-[(N1-Piperidinocarbonyl-2-methylphenylamino)-4-yl]-3-(2-N,Ndiethylaminoethyl)-1,3-dihydrobenzimidazol-2-one]				
33	8	78			68	CN1CCCC1CCn1c(=O)n(C2CCN(C(=O)NC(c3ccccc3)c3ccccc3)CC2)c2ccccc21 (centres unmarked) [Compound 94]				
23	2	0	162			O=C(NC(c1ccccc1)c1ccccc1)N1CCC(n2c(=O)n(CCCN3CCOCC3)c3ccccc32)CC1 [Compound 95, 1-[(N1-piperidinocarbonylbiphenylmethylamino)-4-yl]-3-(3-morpholinopropyl)-1,3-dihydrobenzimidazol-2-one]				
43	0	20	79			O=C(NC(c1ccccc1)c1ccccc1)N1CCC(n2c(=O)n(CCCN3CCCC3)c3ccccc32)CC1 [Compound 96, 1-[(N1-piperidinocarbonyldiphenylmethylamino)-4-yl]-3-(3-N-pyrrolidinylpropyl)-1,3-dihydrobenzimidazol-2-one]				
36	24	6	283			CN1CCN(CCCn2c(=O)n(C3CCN(C(=O)NC(c4ccccc4)c4ccccc4)CC3)c3ccccc32)CC1 [Compound 100, 1-[(N1-piperidinocarbonylbiphenylmethylamino)-4-yl]-3-(3-N-(N-Methylpiperazino)propyl)-1,3-dihydrobenzimidazol-2-one]				

The next lines start with the compound.

Compound	inhibition at 1 µM (human V1b receptor; 1.0 μM compound) [%]	inhibition at 1 µM (human V2 receptor) [%]	inhibition at 10 µM (NPY2 receptors) [%]	IC50 (human V1a receptor) [nM]	IC50 (human V1b receptor) [nM]	inhibition at 1 µM (human V1a receptor; 1.0 μM compound) [%]	V1b@1.0, % Inh (human V1b receptor; 1.0 μM compound) [%]	V2@1.0, % Inh (human V2 receptor) [%]	NPY-2@10, % Inh (NPY2 receptors) [%]	V1a@1.0, % Inh (human V1a receptor; 1.0 μM compound) [%]
CCCN(CCC)CCCn1c(=O)n(C2CCN(C(=S)NC(c3ccccc3)c3ccccc3)CC2)c2ccccc21 [Compound 79, 1-[(N1-piperidinocarbothioylbiphenylmethylamino)-4-yl]-3-(3-N,N-dipropylaminopropyl)-1,3-dihydrobenzimidazol-2-one]	48	13	80	16						
CCOC(=O)C1CCN(CCCn2c(=O)n(C3CCN(C(=S)NC(c4ccccc4)c4ccccc4)CC3)c3ccccc32)CC1 [Compound 83, 1-[(N1-piperidinocarbothioylbiphenylmethylamino)-4-yl]-3-[3-(4-ethylcarboxypiperidine)propyl]-1,3-dihydrobenzimidazol-2-one]	47	2	79	44						
O=c1n(CCCN2CCOCC2)c2ccccc2n1C1CCN(C(=S)NC(c2ccccc2)c2ccccc2)CC1 [Compound 84, 1-[(N1-piperidinocarbothioylbiphenylmethylamino)-4-yl]-3-(3-morpholinopropyl)-1,3-dihydrobenzimidazol-2-one]		8	73	22	274					
CCN(CC)CCCn1c(=O)n(C2CCN(C(=S)NC(c3ccccc3)c3ccccc3)CC2)c2ccccc21 [Compound 85, 1-[(N1-piperidinocarbothioylbiphenylmethylamino)-4-yl]-3-(3-N,N-diethylaminopropyl)-1,3-dihydrobenzimidazol-2-one]		8	81	20	230					
COC(=O)C(Cc1ccccc1)NC(=S)N1CCC(n2c(=O)n(CCCN3CCCC3)c3ccccc32)CC1 [Compound 86, 1-[(N1-Piperidinocarbothioyl-(2-phenyl-1-L-carboxymethyl)amino-4-yl)-4-yl]-3-(3-pyrrolidinylpropyl)-1,3-dihydrobenzimidazol-2-one]		3	10	13	1190					
COc1ccccc1NC(=S)N1CCC(n2c(=O)n(CCCN3CCCC3)c3ccccc32)CC1 [Compound 87, 1-[(N1-Piperidinocarbothioyl-(2-methoxyphenyl)amino)-4-yl]-3-(3-pyrrolidinylpropyl)-1,3-dihydrobenzimidazol-2-one]							23	3	13	30
CCN(CC)CCn1c(=O)n(C2CCN(C(=O)NC(c3ccccc3)c3ccccc3)CC2)c2ccccc21 [Compound 91, 1-(N1-Piperidinocarbonyldiphenylmethylamino-4-yl)-3-(2-N,N-diethyaminoethyl)benzimidazol-2-one]	24	0	56			64				
CN1CCCC1CCn1c(=O)n(C2CCN(C(=S)NC(c3ccccc3)c3ccccc3)CC2)c2ccccc21 (centres unmarked) [Compound 93]	48	0	17	49						
O=C(NC(c1ccccc1)c1ccccc1)N1CCC(n2c(=O)n(CCCN3CCCCC3)c3ccccc32)CC1 [Compound 97, 1-[(N1-piperidinocarbonylbiphenylmethylamino)-4-yl]-3-(3-N-piperidinylpropyl)-1,3-dihydrobenzimidazol-2-one]	35	0	14	34						
CN(CCCn1c(=O)n(C2CCN(C(=S)NC(c3ccccc3)c3ccccc3)CC2)c2ccccc21)C1CCCCC1 [Compound 98, 1-[(N1-piperidinocarbothioylbiphenylmethylamino)-4-yl]-3-(3-N,N-methylcyclohexylaminopropyl)-1,3-dihydrobenzimidazol-2-one]		0	85	22	179					
CC1CCN(CCCn2c(=O)n(C3CCN(C(=O)NC(c4ccccc4)c4ccccc4)CC3)c3ccccc32)CC1 [Compound 99, 1-[(N1-piperidinocarbonylbiphenylmethylamino)-4-yl]-3-(4-methylpiperidin-1-yl-propyl)-1,3-dihydrobenzimidazol-2-one]	46	16	29	126						
